Experimental data published in patent US20220152226A1, “INTRACELLULAR DELIVERY AND MITOCHONDRIAL TARGETING BY FLUORINATION” (The Texas A&M University System, priority 2019, published 2022).

Tests used:
[1] = Body weight and white blood cell counts of treated 4T1 tumor mice; type: in vivo, BALB/c mice
Experimental: Animal experiments. The subcutaneous (s.c.) syngeneic 4T1 tumor mouse model was established by s.c. implantation of 5×10^6 4T1 cells in the right rear flank of the BALB/c mice. The tumor was measured by a caliper.
To study anticancer activity, the saline, VES, PEG2k-F7, VES-loaded PEG2k-PE micelles and VES-loaded PEG2k-F7 micelles were injected intravenously via the tail at a dose of 20 mg/kg every three days for 3 injections. The tumor size and mouse body weight were monitored every other day. The mice were sacrificed and the blood, major organs and tumors were collected. White blood cells were counted by using a hemocytometry by microscopy.

HeLa cells = assay: Mitochondrial membrane potential measurement (JC-1 dye, flow cytometry); type: cell-based, human; conditions: 50 μM, 1 h, compared to untreated cells (FIG. 6B)
Experimental: Mitochondrial Membrane Potential Measurement. The mitochondrial membrane potential was determined using the JC-1 dye by flow cytometry. Briefly, the HeLa cells were seeded at a density of 1×10^5 cells/well in 24-well plates for 24 h. The cells were incubated with the same molar concentration (50 μM) of the PEG2k-F7, TPP and CCCP (mitochondrial uncoupler) in the serum-free medium for 1 h. Then, the cells were washed three times by the iced-cold medium to remove the uninternalized materials. The cells were incubated with the JC-1 dye (Biotium) for 15 min at 37° C., followed by the flow cytometry.

[2] = tested on: isolated mitochondria (HeLa cells); assay: Competitive binding assay on isolated mitochondria (Rh123); parameters: species or system human; conditions: pre-incubation 37° C. 1 h, then Rh123 1 h
Experimental: (§1) Mitochondria Isolation and Binding Affinity Study. The intracellular mitochondria were isolated by the commercial Mitochondria Isolation Kit for Cultured Cells (Thermo Fisher Scientific). Briefly, 2×10^7 HeLa cells were collected by trypsinization and centrifugation (850 g for 2 min). Then, the cells were lysed and the mitochondria were separated from other cell fragments by several washing and centrifugation steps as the manufacture's manual (Option A). The isolated mitochondria were freshly made for the binding affinity study.
For the competitive binding assay, the isolated mitochondria were pre-incubated with triphenylphosphonium (TPP) or PEG2k-F7 at 37° C. for 1 h, and then washed with PBS for three times. The pretreated mitochondria were incubated with Rh123 at 37° C. for additional 1 h. After washing with PBS for three times, the mitochondria were analyzed by the microplate reader.

[3] = tested on: isolated mitochondria (HeLa cells); assay: Binding affinity study with isolated mitochondria; parameters: species or system human; conditions: 37° C., 1 h, fluorescence
Experimental: as §1
The isolated mitochondria were incubated with the FITC-PEG2k, FITC-PE, FITC-F7, FITC-PEG2k-F7, Rh123, and MITOVIEW™ Green at 37° C. for 1 h, respectively. Then, the mitochondria were washed with PBS for three times and suspended in 200 μL PBS. The mitochondria suspension was observed on a Nikon Ti Eclipse fluorescence microscope. The fluorescence intensity was recorded on the microplate reader.

mitochondria = assay: Quantification of mitochondria-accumulated dyes in living cells; type: cell-based
Experimental: For quantification of the mitochondria-accumulated dyes in living cells, 2×10^7 cells were incubated with the FITC-PE, FITC-F7, or Rh123 at 37° C. for 1 h. After washing with PBS, the (total) cellular fluorescence intensity was measured by microplate reader. Then, the cells were lysed and the mitochondria were separated from other cell fragments by Mitochondria Isolation Kit for Cultured Cells (Option A). The fluorescence intensities of the isolated mitochondria and other cell fragments were measured by the microplate reader. To study the influence of mitochondrial membrane potential on mitochondrial targeting, the cells were pre-incubated with the uncoupler, CCCP (50 μM), for 15 min, and then incubated with the FITC-F7 or Rh123 for 1 h.

Cc1c(C)c2c(c(C)c1OC(=O)CCC(=O)O)CC[C@@](C)(CCC[C@H](C)CCC[C@H](C)CCCC(C)C)O2 [VES, d-Vitamin E succinate]
white blood cell (WBC) counts ([1]; FIG. 13): relatively similar to one another
body weight of mice ([1]; over 14 days (FIG. 10)): stayed relatively the same

c1ccc(P(c2ccccc2)c2ccccc2)cc1 [TPP, triphenylphosphonium]
effect on mitochondrial membrane potential (HeLa cells): dramatically depolarized mitochondria
decrease of Rh123 binding affinity by pre-incubation [2]: about 50%

fluorescein isothiocyanate [FITC]
binding affinity with isolated mitochondria [3]: did not significantly bind

rhodamine 123 [Rh123]
effect of CCCP-induced membrane depolarization on mitochondrial accumulation (mitochondria; CCCP 50 μM pre-incubation 15 min, then dye 1 h): substantially reduced
mitochondrial accumulation (mitochondria; mitochondria isolated from treated cells, 37° C., 1 h): 17.5%
